Assay results taken from ChEMBL document CHEMBL3886598, “Pyrazolyl-pyrimidine derivatives as kinase inhibitors” (2016).

Legend:
[1] = biological target: T1, Tyrosine-protein kinase JAK3 (Homo sapiens, UniProt P52333); assay: JAK3 Enzymatic Assay: The assay has been performed using the JAK3 kinase domain (residues 781-1124 of the 1124 amino acid long full-length sequence, accession number P52333 of UniProtKB/Swiss-Prot databse). […] The JAK3 kinase assay was run with a final enzyme concentration of 1 nM, in the presence of 22 uM ATP, 1 nM 33P-γ-ATP and 40 uM of substrate BioDBn*306 (Amino acid sequence: LPLDKDYYWREPGQ-SEQ ID NO: 1). The peptidic substrate was purchased from American Peptide Company (Sunnyvale, Calif.).
T1 sequence (P52333 whole entry): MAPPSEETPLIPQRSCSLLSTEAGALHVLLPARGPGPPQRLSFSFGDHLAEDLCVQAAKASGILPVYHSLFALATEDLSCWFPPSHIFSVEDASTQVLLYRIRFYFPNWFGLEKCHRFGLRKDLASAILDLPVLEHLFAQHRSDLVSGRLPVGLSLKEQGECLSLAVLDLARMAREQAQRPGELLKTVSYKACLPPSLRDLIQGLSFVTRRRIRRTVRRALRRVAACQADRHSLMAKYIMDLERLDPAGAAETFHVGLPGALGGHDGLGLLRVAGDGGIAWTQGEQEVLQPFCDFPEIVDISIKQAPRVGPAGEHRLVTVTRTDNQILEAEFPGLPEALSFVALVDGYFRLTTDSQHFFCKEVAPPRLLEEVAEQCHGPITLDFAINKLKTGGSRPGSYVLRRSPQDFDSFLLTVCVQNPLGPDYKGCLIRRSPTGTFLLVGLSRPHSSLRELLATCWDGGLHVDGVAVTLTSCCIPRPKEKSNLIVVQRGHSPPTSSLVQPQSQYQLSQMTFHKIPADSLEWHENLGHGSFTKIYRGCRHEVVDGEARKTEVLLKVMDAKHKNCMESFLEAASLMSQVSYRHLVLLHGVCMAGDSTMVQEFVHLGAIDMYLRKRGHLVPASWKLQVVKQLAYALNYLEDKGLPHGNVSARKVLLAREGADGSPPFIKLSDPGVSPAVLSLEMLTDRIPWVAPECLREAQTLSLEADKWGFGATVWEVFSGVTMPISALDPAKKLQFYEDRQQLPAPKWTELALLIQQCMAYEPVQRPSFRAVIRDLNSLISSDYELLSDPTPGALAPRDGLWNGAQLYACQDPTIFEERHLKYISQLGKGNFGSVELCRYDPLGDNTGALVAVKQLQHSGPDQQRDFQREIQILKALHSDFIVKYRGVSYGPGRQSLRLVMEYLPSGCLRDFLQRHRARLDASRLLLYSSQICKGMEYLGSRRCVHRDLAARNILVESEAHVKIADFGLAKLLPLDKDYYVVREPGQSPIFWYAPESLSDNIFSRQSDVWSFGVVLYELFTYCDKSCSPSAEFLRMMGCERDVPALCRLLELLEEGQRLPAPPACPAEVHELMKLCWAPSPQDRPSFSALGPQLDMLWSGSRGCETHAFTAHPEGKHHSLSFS

[2] = biological target: Tyrosine-protein kinase JAK2 (Homo sapiens, UniProt O60674); assay: JAK2 Enzymatic Assay: The assay has been performed using the commercial available JAK2 kinase domain (Invitrogen, Eugene, Oreg.). […] The JAK2 kinase assay was run with a final enzyme concentration of 1 nM, in the presence of 60 uM ATP, 3 nM 33P-γ-ATP and 64 uM of substrate BioDBn*306 (Aminoacid sequence: LPLDKDYYWREPGQ⿿SEQ ID NO: 1). The peptidic substrate was purchased from American Peptide Company (Sunnyvale, Calif.). Specific JAK2, JAK1 or JAK3 peptide substrates are trans-phosphorylated by JAKs kinase in the presence of ATP traced with 33P-γ-ATP. At the end of the phosphorylation reaction, the unreacted ATP, cold and radioactive, is captured by an excess of Dowex ion exchange resin that eventually settles by gravity to the bottom of the reaction plate. The supernatant is subsequently withdrawn and transferred into a counting plate that is then evaluated by […].
Tyrosine-protein kinase JAK2, sequence (O60674 whole entry, the tested form may be a part): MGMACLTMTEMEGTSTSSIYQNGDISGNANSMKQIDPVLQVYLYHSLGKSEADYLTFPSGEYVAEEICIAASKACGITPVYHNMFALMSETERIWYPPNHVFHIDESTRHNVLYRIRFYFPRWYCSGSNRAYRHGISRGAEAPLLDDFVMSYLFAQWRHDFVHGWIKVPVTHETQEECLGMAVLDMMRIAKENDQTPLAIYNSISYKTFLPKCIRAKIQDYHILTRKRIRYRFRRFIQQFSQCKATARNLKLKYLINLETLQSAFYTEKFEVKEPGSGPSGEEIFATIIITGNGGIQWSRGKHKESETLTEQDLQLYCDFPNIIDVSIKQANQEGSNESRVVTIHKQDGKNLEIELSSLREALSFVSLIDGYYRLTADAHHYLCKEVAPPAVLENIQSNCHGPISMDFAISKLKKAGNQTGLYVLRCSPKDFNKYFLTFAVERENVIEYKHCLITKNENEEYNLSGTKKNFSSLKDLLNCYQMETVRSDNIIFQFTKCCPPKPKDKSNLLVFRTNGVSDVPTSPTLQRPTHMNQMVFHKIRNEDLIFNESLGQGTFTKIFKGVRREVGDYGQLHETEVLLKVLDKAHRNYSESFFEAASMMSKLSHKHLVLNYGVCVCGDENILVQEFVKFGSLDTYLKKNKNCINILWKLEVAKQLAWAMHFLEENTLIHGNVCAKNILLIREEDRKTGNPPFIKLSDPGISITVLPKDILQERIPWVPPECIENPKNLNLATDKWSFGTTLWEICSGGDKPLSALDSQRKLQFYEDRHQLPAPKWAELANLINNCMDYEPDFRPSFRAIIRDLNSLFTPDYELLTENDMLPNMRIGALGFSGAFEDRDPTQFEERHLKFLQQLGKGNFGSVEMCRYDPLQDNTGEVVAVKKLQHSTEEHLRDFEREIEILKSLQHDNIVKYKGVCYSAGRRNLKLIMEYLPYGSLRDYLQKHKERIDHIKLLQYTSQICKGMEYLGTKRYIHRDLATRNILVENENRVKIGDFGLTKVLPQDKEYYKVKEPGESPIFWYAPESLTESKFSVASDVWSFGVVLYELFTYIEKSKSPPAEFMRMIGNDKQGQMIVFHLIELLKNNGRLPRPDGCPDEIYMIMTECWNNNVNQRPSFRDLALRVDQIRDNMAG

IC50 [1]: < 5 µM | IC50 [2]: < 5 µM
SMILES: CCc1ccc(Cl)cc1-n1nc(-c2ccnc(N)n2)cc1C(N)=O
